For series [1], the system named is R. eutropha. Nature of the series: Spot assay of R. eutropha in the presence of Co^2+. The class given is cell-based, Ralstonia eutropha. To be noted: estimated by comparison at 1/100 dilution, FIG. 18, read-out: half maximal inhibitory concentration, IC50 (concentration of Co^2+ toxic to R. eutropha). The procedure:
(§1) The procedure for spot assays was performed by diluting 100 μL of culture grown under different conditions by 1:10 in fresh minimal medium, which was vortexed. Three to four serial 10-fold dilutions were made and 2 μL of each dilution was spotted on rich broth agar plates and allowed to dry. Plates were typically grown for 2 days at 30° C. before imaging. The half maximal inhibitory concentration (IC50) was estimated based on the comparison at 1/100 dilution. The areas of colonies at certain conditions were then compared with that of control samples.
FIG. 17 presents, cyclic voltammograms of Co^2+ in the phosphate buffer (pH=7), a pre-wave to the catalytic water-splitting current corresponds to the oxidation of Co^2+ to Co^3+, which drives deposition of the catalyst. […] As noted previously, the self-healing property of CoPi alloy is derived from this interplay of the potential at which OER occurs vs. the potential at which the catalyst deposits. In concert, the Co—P and CoPi catalysts maintain extremely low concentrations of Co^2+ in solution through activity derived from the self-healing process. Inductively coupled plasma mass spectrometry (ICP-MS) analysis of a Co-P|CoPi catalysts system (Eappl=2.2 V) confirm that sub-μM levels of Co^2+ are present in solution after 24 h. […]

Series [2] addresses membrane-bound hydrogenases in R. eutropha (Cupriavidus necator, UniProt P31891). The conditions noted are these: H2 as substrate; cited from earlier work.
Series [3] concerns R. eutropha. In kind it is cell-based, Ralstonia eutropha. The conditions noted are these: spot assay at different isopropanol concentrations, FIG. 25. The procedure: as §1
FIG. 25 is a photograph of cell cultures taken for different isopropanol concentration.

For series [4], the system named is H16 and ROS-resistant BC4 strains of R. eutropha. Nature of the series: Spot assay of ROS tolerance with paraquat as ROS-inducer. The class given is cell-based, Ralstonia eutropha. The conditions noted are these: BC4 vs wild-type H16, FIG. 26. As to the method:
as §1
A ROS-resistant variant of R. eutropha, evolved from a reactor including a stainless steel CoPi water-splitting electrode pair after 11 consecutive days of operation at an applied voltage potential of 2.3 V with a H2O2 generation rate of ˜0.6 μM/min. […] However, there was minimal difference noted in ηelec for the current reactor systems using the Co-P|CoPi electrode pairs, confirming minimal concentrations of ROS in the reactors. Of course, it should be understood that BC4 may be used in any reactor system, and may also be beneficial for use in helping systems achieve a high ηelec where ROS are present in larger concentrations.

Structures are written as SMILES.

We go through 4 compounds from patent US11091781B2, “Carbon fixation systems and methods” (priority 2015, dated 2021).

Sequence of membrane-bound hydrogenases in R. eutropha (P31891 1-603 limits assumed): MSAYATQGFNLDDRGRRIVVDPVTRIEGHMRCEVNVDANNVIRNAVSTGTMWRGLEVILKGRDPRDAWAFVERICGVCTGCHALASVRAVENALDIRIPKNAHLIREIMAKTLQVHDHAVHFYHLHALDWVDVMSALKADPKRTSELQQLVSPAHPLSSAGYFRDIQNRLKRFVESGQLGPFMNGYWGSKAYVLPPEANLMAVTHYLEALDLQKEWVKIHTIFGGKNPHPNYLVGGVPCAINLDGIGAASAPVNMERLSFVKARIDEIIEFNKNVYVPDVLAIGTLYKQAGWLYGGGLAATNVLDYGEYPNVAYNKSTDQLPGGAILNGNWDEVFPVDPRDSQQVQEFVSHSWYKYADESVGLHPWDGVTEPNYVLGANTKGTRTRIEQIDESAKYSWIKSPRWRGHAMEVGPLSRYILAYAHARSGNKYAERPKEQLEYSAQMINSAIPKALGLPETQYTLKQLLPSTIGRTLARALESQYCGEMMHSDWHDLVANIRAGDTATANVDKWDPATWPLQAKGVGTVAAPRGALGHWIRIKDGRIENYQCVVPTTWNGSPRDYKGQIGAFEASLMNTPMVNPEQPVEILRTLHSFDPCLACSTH
Sequence of membrane-bound hydrogenases in R. eutropha (P31892 44-360 partner): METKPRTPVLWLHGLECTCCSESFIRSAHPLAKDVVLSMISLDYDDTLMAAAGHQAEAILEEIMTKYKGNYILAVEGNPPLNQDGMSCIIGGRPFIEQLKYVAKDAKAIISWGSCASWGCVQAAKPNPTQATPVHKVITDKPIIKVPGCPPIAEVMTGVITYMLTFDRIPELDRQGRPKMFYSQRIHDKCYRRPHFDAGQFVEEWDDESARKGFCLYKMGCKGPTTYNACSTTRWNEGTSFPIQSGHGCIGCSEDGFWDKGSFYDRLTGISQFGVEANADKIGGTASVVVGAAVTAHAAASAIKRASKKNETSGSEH

For the compound `[Co+2]` [Co^2+], the IC50 with R. eutropha [1] was approximately 25 µM.

With `[HH]` [H2, hydrogen], the Michaelis constant entry in series [2] is “about 6 μM”.

As to `CC(C)O` [isopropanol], the “tolerance of R. eutropha towards isopropanol” value in the series on R. eutropha [3] is on record as “demonstrates tolerance”.

On to `C[n+]1ccc(-c2cc[n+](C)cc2)cc1` [paraquat], for which the “IC50 of paraquat for BC4 compared with wild type” value in series [4] is reported as “almost one order of magnitude higher than that of wild type”.
